Test results published in patent US5504190A, “Equimolar multiple oligomer mixtures, especially oligopeptide mixtures” (priority 1994, dated 1996).

Experiments:
[1] = test system: Staphylococcus aureus (ATCC 29213); assay: microbe, parasite or virus in culture
Method: Escherichia coli (ATCC 25922) was used as Gram-negative (-) and Staphylococcus aureus (ATCC 29213) as Gram-positive (+) bacteria. Bacteria were grown overnight (about 18 hours) at 37° C. in Mueller-Hinton (MH) broth. This culture was reinoculated and incubated at 37° C. to reach the exponential phase of bacteria growth; i.e., a final bacterial suspension containing about 10^5 to 5×10^5 colony-forming units (CFU)/ml. The concentration of cells was established by plating 100 μl of different dilutions of the culture solution (e.g., 10^-2, 10^-3 and 10^-4) onto solid agar plates. Following an overnight (about 18 hours) incubation at 37° C., the CFU thus formed were counted on each agar plate.
96-Well tissue culture plates were utilized, with eight wells per plate containing only medium as control blanks, whereas eight other wells contained medium plus cells as a positive growth control. These controls were used to detect possible medium contamination and to provide a measure of uninhibited growth of the microorganisms.
For initial screening studies, oligopeptide sets were added to the bacterial suspension to reach a final concentration of 1 mg/ml.
The plates were incubated overnight (about 18 hours) at 37° C., and the optical density (OD) determined at 620 nm after different times of incubation.

human red blood cells = type: cell-based
Method: Assays were carried out in 96-well culture tissue plates. Four wells per plate contained 125 μl of a non-peptide positive control of the surfactant Triton X-100 (poly)oxyethanol (9) octyl phenyl ether; 1 percent in deionized water!, and four wells per plate contained 115 μl of a control blank of phosphate-buffered saline (PBS). The hemolytic peptide melittin was used as comparative control. The controls served to detect possible contamination and to calculate the percent hemolysis of each peptide.
Human red blood cells (RBC's) were washed with PBS and centrifuged to separate them from the serum. The cells are then resuspended in PBS to a final suspension of 0.5 percent RBC. This suspension (125 μl) was added to the peptide mixture and control solutions. The plates were incubated at 37° C. for one hour and centrifuged at 2800 rpm for five minutes. The release of hemoglobin resulting from the cell lysis was determined by measuring the OD at 414 nm of 100 μl of the supernatant.

[2] = test system: Herpes Simplex Virus Type 1 (HSV-1); assay: HSV-1 plaque assay on Vero cell monolayers; type: cell-based; details: Table 10
Method: The screenings utilized a plaque assay in which 24-well plates containing Vero (monkey kidney) cell monolayers were overlaid with 400 μg/ml of each peptide or mixture in M-199V (medium and newborn calf serum). The plates were incubated for two hours at 37° C.
Each well was thereafter aspirated and immediately overlaid with 400 μg of peptide or mixture in DMEM-O (Dulbeco's modified Eagle's medium and pooled human gamma globulin) and incubated for 48 hours. […] At 48 hours, the plate wells were aspirated, rinsed, fixed and stained. Plaque formation, if present, was tallied and recorded.
The PFU's per well of six controls were averaged and represent 100 percent plaque formation at approximately 50 PFU's per well. The average PFU's per screened peptide or mixture (duplicate wells) quantitatively represented percent viral inhibition of plaque formation or infection. For example, a count of 10 PFU's of a screened peptide compared to the control of 50 PFU's would represent 20 percent plaque formation and 80 percent plaque inhibition.

[3] = test system: Vero (monkey kidney) cell monolayers; type: cell-based
[4] = test system: Candida albicans ATCC 10231; assay: antifungal assay, growth inhibition of C. albicans (OD 620 nm); type: cell-based; details: Table 9
Method: Antifungal studies were carried out Candida albicans ATCC 10231 as the target microbe. The yeast culture was spread onto YM agar plates and incubated at 30° C. for 48 hours. Three colonies of this culture (about 1 mm in diameter each) were then inoculated in 5 ml of 1 X PBS solution. The suspension was vortexed and diluted 10-fold in YM broth, for an approximate final concentration of 10^5 to 5×10^5 CFU (colony forming units)/ml.
Actual concentrations of yeast cultures were determined by plating 100 μl of different solutions of the culture solution (10^-3, 10^-4 and 10^-5) onto solid YM agar plates. After 48 hours of incubation at 30° C., CFU formed were counted from each plate.
The assays were carried out in 96-well tissue culture plates. Eight wells containing only medium of YM broth served as negative controls, whereas eight wells containing medium and yeast culture served as positive controls. These controls were used to detect possible medium contamination and to provide a measure of uninhibited growth of the yeast.
For screening studies, oligopeptide mixtures were added to the yeast suspension in duplicates to reach a final concentration of 1.5 mg/ml. […] The plates were incubated over a period of 48 hours at 30° C., and the optical density (OD) at 24 and 48 hours was determined at 620 nm.

[5] = target: monoclonal antibody (mAb) 125-10F3; assay: competitive ELISA, inhibition of mAb 125-10F3 binding to plate-adsorbed polypeptide SEQ ID NO:1
Source text: Monoclonal antibody (mAb) 125-10F3 was used in these studies, which binds specifically to a 13-residue polypeptide […](SEQ ID NO:1) Appel et al., J. Immunol., 144:976-983 (1990)!. The antigenic determinant recognized by the mAb is Pro-Tyr-Pro-Asn-Leu-Ser (SEQ ID NO:2), determined previously using individual omission analogs of the polypeptide as is seen in FIG. 2.
The peptide library was screened utilizing a competitive ELISA system that measured the inhibition in solution of the binding of the mAb to polypeptide SEQ ID NO:1 adsorbed to an assay plate by each individual element of the synthetic combinatorial library. […] Screening data for an exemplary eighteen of the 400 sets are shown in FIG. 4, with arrows at the two best binding sequences.
The concentration of the inhibiting oligopeptide sets at which 50 percent of the mAb was inhibited in its binding to the polypeptide (IC-50) was determined.

[6] = 7-mer studies, Tables 5 and 6 and parent 6-mer

Substance | HD-50 (human red blood cells) [µg/mL] | IC-50 [4] [µg/mL] | MIC [4] [µg/mL] | IC-50 [1, 6] [µg/mL] | MIC [1, 6] [µg/mL] | further results
Ac-RRWWCK-NH2 [RRWWCK] | 249 |  |  |  |  | IC-50 ([1]; Tables 3 and 4): 5.5 µg/mL; MIC ([1]; Tables 3 and 4): 4.8 to 9.6 µg/mL; concentration for 100 Percent Inhibition [2]: 5 µg/mL; Toxic Concentration [3]: 10 µg/mL
Ac-RRWWCM-NH2 [RRWWCM] |  |  |  |  |  | concentration for 100 Percent Inhibition [2]: 1 µg/mL; Toxic Concentration [3]: 10 µg/mL
Ac-RRWWCVR-NH2 [RRWWCVR] |  | 50 | 50 to 62 |  |  | 
Ac-RRWWCW-NH2 [RRWWCW] | 11 |  |  |  |  | IC-50 ([1]; Tables 3 and 4): 4.1 µg/mL; MIC ([1]; Tables 3 and 4): 4.5 to 9.0 µg/mL
Ac-RRWWCY-NH2 [RRWWCY] | 50 |  |  |  |  | IC-50 ([1]; Tables 3 and 4): 5.4 µg/mL; MIC ([1]; Tables 3 and 4): 4.7 to 9.5 µg/mL
Ac-RRWWRFF-NH2 [RRWWRFF] | 106 |  |  | 4.7 | 4 to 8 | 
Ac-RRWWRFK-NH2 [RRWWRFK] |  | 46 | 50 to 62 |  |  | 
Ac-RRWWRFR-NH2 [RRWWRFR] |  | 45 | 50 to 62 | 7.9 | 8 to 16 | 
Ac-RRWWRFW-NH2 [RRWWRFW] | 59 |  |  | 2.5 | 4 to 8 | 
Ac-RRWWRH-NH2 [RRWWRH] |  | 30.1 | 40 to 80 |  |  | 
Ac-RRWWRR-NH2 [RRWWRR] |  | 27.6 | 30 to 42 |  |  | concentration for 100 Percent Inhibition [2]: 1 µg/mL; Toxic Concentration [3]: 25 µg/mL
Ac-RRWWRW-NH2 [RRWWRW] |  |  |  |  |  | concentration for 100 Percent Inhibition [2]: 1 µg/mL; Toxic Concentration [3]: 25 µg/mL
Ac-WRRWWRF-NH2 [WRRWWRF] | 158 |  |  | 5.4 | 4 to 8 | 
Ac-YPNLSN-NH2 [Ac-Tyr-Pro-Asn-Leu-Ser-Asn-NH2] |  |  |  |  |  | IC50 ([5]; later study completing the Ac-Tyr-Pro series ("in this study"), read-out: IC-50): 150 nM; IC-50 value difference between the mixture (positions 1-5 of SEQ ID NO:15, position 6 mixture) and the single peptide ([5]; mixture inhibited better): about a factor of four
Ac-YRRWWRF-NH2 [YRRWWRF] | 219 |  |  | 4.5 | 4 to 8 | 
